Measured values taken from patent US20160287601A1, “ENHANCED TREATMENT REGIMENS USING PI3K INHIBITORS” (MILLENNIUM PHARMACEUTICALS, INC., priority 2013, published 2016).

Experiments:
[1] = test system: MDA-MB-361 human breast cancer xenografts; test: Antitumor activity in MDA-MB-361 human breast cancer xenografts, various doses and schedules; assay type: in vivo, female athymic nude mice; conditions: PO
Procedure: Objectives of this study: to determine the in vivo antitumor activity of compound A at various doses and schedules in the MDA-MB-361 human breast cancer xenografts after oral (PO) administration in female nude mice.
Compound A was prepared according to methods disclosed in WO 2011/022439 and WO 2013/071272 and stored at approximately 25° C., shielded from light. The control used in this study was 100% PEG400.
Low passage MDA-MB-361 cells were grown in Dulbecco's Modified Eagle's Medium (DMEM) media supplemented with 20% fetal bovine serum (FBS) and 1× penicillin/streptomycin (Invitrogen [Carlsbad, Calif., USA]) until approximately 80% confluency was reached. […]
Four-five week old female athymic nude mice were inoculated SC in flank (cell suspension in serum free DMEM and 50% Matrigel) with 10.0×10^6 MDA-MB-361 cells. Tumor growth was monitored with vernier calipers. The mean TV (MTV) was calculated using the formula V=W^2×L/2.
When tumors reached a mean tumor volume (MTV) of approximately 280 mm^3, mice (n=5/group) were treated with vehicle (PEG400) or compound A (60, 70, 140, or 210 mg/kg) administered concurrently via oral gavage over a 28 day treatment period on the schedules indicated below in Table 2. The percentage of tumor growth inhibition (TGI) and percent body weight (BW) change were determined on Day 28. […]

[2] = Phase 1 clinical study, safety and tolerability (MTD, AEs grade 3 or higher) in patients with advanced solid malignancies; assay type: in vivo
Source text: A phase 1 clinical study was initiated to evaluate the safety, tolerability, PK, pharmacodynamics; to determine the maximum tolerated dose (MTD) in each of 3 schedules described below; and to evaluate antitumor activity in patients with advanced solid malignancies.
Inclusion Criteria • Subjects have had their PIK3CA gene mutation status assessed prior to enrolling into the study • Subjects must have documented disease progression prior to enrolling into the study • locally advanced or metastatic solid tumors with the exception of primary brain tumor, and have failed or are not eligible for standard of care therapy. • Age ≧18 years, including males and females; • ECOG performance status (PS) 0-1; • Adequate organ function; • Male subjects must be surgically sterile or must agree to use physician-approved contraception during the study and for 30 days following the last study drug administration; • Ability to swallow oral medications; • Ability to understand and willingness to sign informed consent prior to initiation of any study procedures; • For women of child-bearing potential, negative serum pregnancy test within 14 days prior to the first study drug administration and use of physician-approved method of birth control from 30 days prior to the first study drug administration to 30 days following the last study drug administration
35 patients were enrolled into the dose escalation phase of the study, which is designed to determine the MTD of compound A when given orally on continuous (daily) or intermittent schedules. The MTD for the QD dosing schedule was determined to be 100 mg.
Other than MTD, the other primary outcome measures is the tolerability profile of compound A or the number of adverse events (AE) from the first dose of study drug through 30 days after the last dose of study drug. Plasma levels of compound A is one of the secondary outcome measures.

[3] = test system: T47D (PIK3CA mutant, ER/PR+) human breast cancer xenografts; test: Antitumor activity alone and in combination with fulvestrant in T47-D xenografts; assay type: in vivo, NOD-SCID mice; conditions: Compound A 70 mg/kg PO QD x 3/wk x 3, Fulvestrant 100 mg/kg SC QW x 3; for TGI (tumor growth inhibition): Day 21 post treatment initiation; for ΔAUC (change in area under the tumor volume-versus-time curves): versus vehicle, 21 day treatment
Source text: The control used in this study was 100% PEG400+0.9% Saline. Fulvestrant was formulated in 0.9% saline.
Prior to injection, the cells were detached with Trypsin (Invitrogen), washed twice with phosphate buffered saline (PBS), and resuspended in RPMI (Roswell Park Memorial Institute) media (Invitrogen,) without supplements. Cells were resuspended to a final concentration of 10.0×10^7 cells/ml in DPBS and mixed with 50% Matrigel (BD Biosciences) at 1 to 1 volume. T47-D cells (10.0×10^6 cells/animal in 02-mL injection volume) were implanted S.C. into the right flank of NOD-SCID mice (Harlain Laboratories).
Four-six week old female NOD-SCID mice were inoculated SC in flank (cell suspension in DPBS and 50% Matrigel) with 10.0×10^6 T47-D cells. Tumor growth was monitored with vernier calipers. The mean TV (MTV) was calculated using the formula V=W2×L/2.
The percentage of tumor growth inhibition (TGI) and percent body weight (BW) change were determined on Day 21 and provided in Table 6. Statistical comparisons of tumor growth between the treatment and vehicle groups were conducted using a linear mixed effects regression analysis on the change in area under the tumor volume (TV)-versus—time curves (ΔAUC) values. All p values less than 0.05 were considered significant.
A combination score calculation was used to address the question of whether the effects of the combination treatments were synergistic, additive, subadditive, or antagonistic relative to the individual treatments. The effect was considered synergistic if the synergy score was less than 0, and additive if the synergy score wasn't statistically different from 0.

Compound	efficacy in reducing tumor size, intermittent regimen versus daily administration ([1]; 28 day treatment, total amount administered comparable in daily and intermittent schedules)	relationship between efficacy (tumor growth inhibition, TGI) and exposure (AUC) between dosing schedules ([1]; single agent, FIG. 3)	maximum tolerated dose (MTD) ([2]; QD (continuous daily) oral dosing schedule)	Abdominal pain, AEs grade 3 or higher ([2]; both, human, in vivo)	Anaemia, AEs grade 3 or higher ([2]; both, human, in vivo)	Chills, AEs grade 3 or higher ([2]; both, human, in vivo)	Decreased appetite, AEs grade 3 or higher ([2]; both, human, in vivo)	Diarrhoea, AEs grade 3 or higher ([2]; both, human, in vivo)	Drug-induced liver injury, AEs grade 3 or higher ([2]; both, human, in vivo)	Hyperglycaemia, AEs grade 3 or higher ([2]; both, human, in vivo)	Nausea, AEs grade 3 or higher ([2]; both, human, in vivo)	Oxygen saturation, AEs grade 3 or higher ([2]; both, human, in vivo)	Transaminases incr'd, AEs grade 3 or higher ([2]; both, human, in vivo)	TGI (tumor growth inhibition) [3]	TGI (tumor growth inhibition) ([3]; listed as compound A)	ΔAUC (change in area under the tumor volume-versus-time curves) [3]
Nc1nc2cc(-c3ccc4ncc(C(=O)N5CCOCC5)n4c3)ccc2o1 [Compound A, (6-(2-aminobenzo[d]oxazol-5-yl)imidazo[1,2-a]pyridin-3-yl)(morpholino)methanone]	as efficacious in reducing tumor size as daily administration	AUC-driven	100 mg	1 (4) n (%)	1 (5) n (%)	1 (6) n (%)	1 (6) n (%)	1 (6) n (%)	1 (4) n (%)	2 n (%)	1 (6) n (%)	1 (6) n (%)	2 (8) n (%)	52.60%	52.6%	61.2
C[C@]12CC[C@@H]3c4ccc(O)cc4C[C@@H](CCCCCCCCC[S+]([O-])CCCC(F)(F)C(F)(F)F)[C@H]3[C@@H]1CC[C@@H]2O (stereo partly drawn) [Fulvestrant, (7α,17β)-7-{9-[(4,4,5,5,5-pentafluoropentyl)sulfinyl]nonyl}estra-1,3,5(10)-triene-3,17-diol, reference compound]														66.70%		108.4
